The subject of data set [1] is Hepatitis C virus. The data set can be described thus: Antiviral activity at Hepatitis C virus genotype 1b infected in human HuH7 cells assessed as inhibition of viral replication at 10 uM after 3 days by renilla luciferase reporter gene assay. The class given is functional, Hepacivirus hominis. The following applies: Huh-7, 72 h. A general note: In a reporter assay the amount or activity of a reporter protein is the signal.

A short description of data set [2]: Cytotoxicity against human HuH7 cells assessed as cell viability at 10 uM after 3 days by CellTiter Glo assay. It counts as cell-based, Huh-7. To be noted: read-out: Activity. On the technique in general: In ATP-based viability assays light output follows the ATP content of the culture.
The test system of data set [3] is Hepatitis C virus. The data set can be described thus: Antiviral activity at Hepatitis C virus genotype 1b infected in human HuH7 cells assessed as inhibition of viral replication after 3 days by renilla luciferase reporter gene assay. It counts as functional, organism-based, Hepacivirus hominis. To be noted: Huh-7, 72 h.
The nature of data set [4]: Cytotoxicity against human HuH7 cells assessed as cell viability after 3 days by CellTiter Glo assay. The class given is cell-based, Huh-7.
Data set [5] can be described thus: Therapeutic index, ratio of CC50 for human HuH7 cells to EC50 for Hepatitis C virus genotype 1b. It counts as cell-based, Huh-7. To be noted: read-out: Ratio CC50/EC50.
Data set [6] concerns Hepatitis C virus. The experiment in a line: Antiviral activity at Hepatitis C virus genotype 1b infected in human HuH7 cells assessed as inhibition of viral replication at 10 uM after 3 days by quantitative RT-PCR analysis. The class given is functional, Hepacivirus hominis. The following applies: Huh-7, 72 h.
In data set [7] the test system is Hepacivirus hominis. The data set can be described thus: Inhibition of Hepatitis C virus NS5B delta 55 assessed as [3H][…] incorporation on a poly(A) template at 10 uM after 3 hrs by scintillation proximity assay. A general note: SPA uses beads or plates that emit light when radiolabelled molecules are held near them.
Data set [8] concerns Hepacivirus hominis. The experiment in a line: Inhibition of Hepatitis C virus NS5B delta 55 assessed as [3H][…] incorporation on a poly(A) template at 50 uM after 3 hrs by scintillation proximity assay.
For data set [9], the system named is Hepacivirus hominis. The experiment in a line: Inhibition of Hepatitis C virus NS5B delta 55 assessed as [3H][…] incorporation on a poly(A) template at 1 uM after 3 hrs by scintillation proximity assay.
Data set [10] deals with Hepatitis C virus. The data set can be described thus: Antiviral activity at Hepatitis C virus genotype 1b infected in human HuH7 cells assessed as inhibition of viral replication at 0.5 uM after 3 days by renilla luciferase reporter gene assay. It counts as functional, Hepacivirus hominis. To be noted: Huh-7, 72 h.
Data set [11] in a line: Cytotoxicity against human HuH7 cells assessed as cell viability at 0.5 uM after 3 days by CellTiter Glo assay. The class given is cell-based, Huh-7. The following applies: read-out: Activity.
In data set [12] the test system is Hepatitis C virus. The experiment in a line: Antiviral activity at Hepatitis C virus genotype 1b infected in human HuH7 cells assessed as inhibition of viral replication at 0.5 uM after 3 days by quantitative RT-PCR analysis. It counts as functional, Hepacivirus hominis. To be noted: Huh-7, 72 h.

The results in this text go back to ChEMBL document CHEMBL2057076, “C-6 aryl substituted 4-quinolone-3-carboxylic acids as inhibitors of hepatitis C virus” (Bioorg Med Chem, 2012).

Activity calls are given as the source filed them. The rule behind the calls is not given here.

In the case of `O=C(O)c1cnc2ccc(I)cc2c1O`, the inhibition (commonly the share of the control response that was lost under treatment) at 10 µM in the data set on Hepatitis C virus [1] was 22%. Besides, the viability at 72 h, 10 µM in data set [2] worked out at 100%.

Turning to `O=C(O)c1cn(CCO)c2cc(-c3ccco3)ccc2c1=O`, the inhibition at 10 µM with Hepatitis C virus [1] was determined as 15%. Also, in [2], the viability at 72 h, 10 µM is 100%.

Turning to `CC(=O)c1ccc(-c2ccc3c(c2)c(=O)c(C(=O)O)cn3CCO)s1`, in the data set on Hepatitis C virus [1], the inhibition at 10 µM worked out at 0%. For the same compound, the viability at 72 h, 10 µM in [2] came out at 100%.

Consider `COc1ccc(-c2ccc3c(c2)c(=O)c(C(=O)O)cn3CCO)cc1`, for which the inhibition at 10 µM in the data set on Hepatitis C virus [1] was 0%. For the same compound, the viability at 72 h, 10 µM in [2] was 95%.

On to `O=C(O)c1cn(CCO)c2ccc(-c3ccco3)cc2c1=O`, for which, in the data set on Hepatitis C virus [1], the inhibition at 10 µM amounted to 20%. The viability at 72 h, 10 µM in data set [2] worked out at 100%.

Consider `O=C(O)c1c[nH]c2ccc(-c3ccco3)cc2c1=O`, for which the inhibition at 10 µM in the data set with Hepatitis C virus [1] worked out at 0%. Besides, the viability at 72 h, 10 µM in data set [2] was found to be 100%.

For `CCCn1cc(C(=O)O)c(=O)c2cc(-c3cc4ccccc4o3)ccc21`, in the data set with Hepatitis C virus [1], the inhibition at 10 µM is 4%. In addition, the viability at 72 h, 10 µM in data set [2] stood at 91%.

Regarding `O=C(O)c1cn(CCO)c2ccc(-c3cc4ccccc4o3)cc2c1=O`, the inhibition at 10 µM was found to be 63% with Hepatitis C virus [1] and 70% in the data set with Hepatitis C virus [6]. For the same compound, the viability at 72 h, 10 µM in [2] amounted to 100%. The half-maximal effective concentration (EC50) – broadly, the concentration at which the effect is half-maximal – in the data set on Hepatitis C virus [3] was 5.8 µM. The CC50 – broadly, the concentration giving 50% cytotoxicity – at 72 h in data set [4] worked out at 34 µM. In addition, the selectivity ratio in data set [5] is 5.9. In addition, the inhibition entry in the data set on Hepacivirus hominis [7] and with Hepacivirus hominis [8] was “inactive” in each case.

In the case of `O=C(O)c1cn(CCCO)c2ccc(-c3cc4ccccc4o3)cc2c1=O`, the inhibition at 10 µM in the data set on Hepatitis C virus [1] was 44%. For the same compound, the viability at 72 h, 10 µM in [2] came to 100%. Also, in the data set with Hepatitis C virus [3], the EC50 is 23 µM. In [4], the CC50 at 72 h came to 25 µM. Also, the selectivity ratio in [5] was found to be 1.1.

In the case of `O=C(O)c1cn(CCO)c2ccc(-c3cc4ccccc4s3)cc2c1=O`, the inhibition at 10 µM in the data set on Hepatitis C virus [1] was 58%. In data set [2], the viability at 72 h, 10 µM worked out at 100%. The EC50 with Hepatitis C virus [3] is 5.9 µM. In addition, the CC50 at 72 h in data set [4] worked out at 15 µM. Further, in [5], the selectivity ratio came out at 2.5. For the same compound, the inhibition entry in the data set with Hepacivirus hominis [7] and in the data set on Hepacivirus hominis [8] was “Active” throughout.

As for `O=C(O)c1cn(CCO)c2ccc(-c3ccoc3)cc2c1=O`, the inhibition at 10 µM in the data set with Hepatitis C virus [1] was found to be 0%. The viability at 72 h, 10 µM in [2] stood at 100%.

With `O=C(O)c1cn(CCO)c2ccc(-c3cccs3)cc2c1=O`, the inhibition at 10 µM in the data set with Hepatitis C virus [1] was found to be 40%. For the same compound, the viability at 72 h, 10 µM in data set [2] is 100%. Besides, in the data set on Hepatitis C virus [3], the EC50 is 36 µM. Also, the CC50 at 72 h in [4] was more than 50 µM. Also, the selectivity ratio in [5] was more than 1.4. For the same compound, the inhibition entry in the data set with Hepacivirus hominis [7] and in the data set with Hepacivirus hominis [8] was “Active” in each case.

Consider `NC(=O)c1ncn([C@@H]2O[C@H](CO)[C@@H](O)[C@H]2O)n1` [RIBAVIRIN], for which the inhibition at 10 µM in the data set on Hepatitis C virus [1] turned out to be 44%. Moreover, the viability at 72 h, 10 µM in data set [2] turned out to be 92%.

`O=C(O)c1cn(Cc2ccccc2)c2ccc(I)cc2c1=O`: in the data set on Hepatitis C virus [1], the inhibition at 10 µM is 0%. In data set [2], the viability at 72 h, 10 µM stood at 99%.

For `O=C(O)c1cn(CCO)c2ccc(I)cc2c1=O`, in the data set with Hepatitis C virus [1], the inhibition at 10 µM was 21%. The viability at 72 h, 10 µM in data set [2] amounted to 100%.

Turning to `O=C(O)c1c[nH]c2ccc(-c3cccs3)cc2c1=O`, in the data set with Hepatitis C virus [1], the inhibition at 10 µM turned out to be 0%. In addition, the viability at 72 h, 10 µM in data set [2] was 100%.

Turning to `O=C(O)c1cn(CCCO)c2cc(-c3cccs3)ccc2c1=O`, the inhibition at 10 µM in the data set with Hepatitis C virus [1] was 12%. Moreover, in data set [2], the viability at 72 h, 10 µM was 97%.

Take `N#Cc1cc(COc2cccc(C(=O)/C=C(\O)C(=O)O)c2)c(Cl)cc1Cl`: in the data set on Hepacivirus hominis [9], the inhibition entry is “Active”.

Consider `O=C(O)c1cn(CCO)c2cc(-c3cccs3)ccc2c1=O`, for which the inhibition at 10 µM with Hepatitis C virus [1] is 14%. Moreover, the viability at 72 h, 10 µM in data set [2] turned out to be 100%.

Turning to `O=C(O)c1cn(CCO)c2cc(-c3cc4ccccc4o3)ccc2c1=O`, the inhibition at 10 µM with Hepatitis C virus [1] came to 14%. The viability at 72 h, 10 µM in [2] came to 94%.

As for `C[C@@]1(O)[C@H](O)[C@@H](CO)O[C@H]1n1cnc2c(N)ncnc21`, the inhibition at 0.5 µM with Hepatitis C virus [10] was found to be 98%; in the data set with Hepatitis C virus [12], 95%. For the same compound, in [11], the viability at 72 h, 0.5 µM was 87%.
